According to paper PMC6105163, “Abaloparatide Exerts Bone Anabolic Effects with Less Stimulation of Bone Resorption-Related Factors: A Comparison with Teriparatide” (Calcified Tissue International, 2018):
Read-outs that look alike come from different tables or passages of the source.

Key:
SaOS-2 [1] = assay: M-CSF protein secretion (ELISA); assay type: cell-based, human; conditions: 100 nmol/L, n = 3; for M-CSF protein secretion: continuous treatment (Fig. 2c), ABL and TPTD did not differ significantly
Method: (§1) SaOS-2 was cultured in 48-well plates at a density of 5 × 10^4 cells/well in DM for 10 days. The medium was replaced with serum-free DM for culture under starvation conditions. Twenty-four hours after the start of starvation, cells were treated with ABL and TPTD at a concentration of 100 nmol/L. Six hours after treatment, cells were washed with PBS twice, and cultured with peptide-free or peptide-containing medium for the rest of the experimental period.
Human Quantikine M-CSF, Sclerostin, and DKK1 ELISA kits (R&D Systems, Minneapolis, MN, USA) were used to quantify M-CSF, sclerostin, and DKK1, respectively, in the cell supernatants according to the manufacturer’s instructions.

SaOS-2 [2] = assay: Bone resorption-related factor gene expression (qRT-PCR); assay type: cell-based, human; conditions: 100 nmol/L; for M-CSF mRNA expression / OPG mRNA expression / RANKL mRNA expression / RANKL/OPG mRNA expression: continuous treatment (Fig. 2b); for expression of bone resorption-related factors such as RANKL/OPG and M-CSF: human osteoblastic cells
Method: as §1
Cells were lysed and total RNA was extracted using an RNeasy Mini Kit (Qiagen, Valencia, CA, USA). RNA was reverse-transcribed into cDNA using the SuperScript III First-Strand Synthesis System for RT-PCR (Invitrogen, Carlsbad, CA, USA). Quantitative RT-PCR was performed on a 7500 Real-Time PCR System (Applied Biosystems) using Power SYBR Green PCR Master Mix (Thermo Fisher Scientific, Waltham, MA, USA). The primers used in this study were as follows: 5′-CGATGGTGGATGGCTCATG-3′ (forward) and 5′-ACCAGATGGGATGTCGGTG-3′ (reverse) for RANKL, 5′-[…]-3′ (forward) and 5′-[…]-3′ (reverse) for M-CSF, 5′-[…]-3′ (forward) and 5′-[…]-3′ (reverse) for OPG, 5′-[…]-3′ (forward) and 5′-[…]-3′ (reverse) for IGF1, 5′-[…]-3′ (forward) and 5′-[…]-3′ (reverse) for osteocalcin, 5′-[…]-3′ (forward) and 5′-[…]-3′ (reverse) for DMP1, 5′-[…]-3′ (forward) and 5′-[…]-3′ (reverse) for SOST, 5′-[…]-3′ (forward) and 5′-[…]-3′ (reverse) for DKK1, 5′-GTGAAGGTCGGAGTCAACG-3′ (forward) and 5′-TGAGGTCAATGAAGGGGTC-3′ (reverse) for GAPDH.

[3] = cited from earlier work
PTH1R = conditions: ref [22]; cited from earlier work
Source text: It is unclear why ABL stimulates lower expression of bone resorption-related factors than TPTD with transient treatment only. Recently, it was reported that PTH1R has at least two types of active conformations and that the binding conformation selectivity differs between ABL and TPTD [21, 22]. This difference further affects the duration of the downstream signaling. […] We therefore thought that the difference in bone resorption-related factors could arise from the d ...

OVX rats = assay: Lumbar spine (L4-L5) BMD in OVX rats; assay type: in vivo, Sprague–Dawley rats (female); conditions: once daily s.c. for 28 days, BMD on day 26 (PIXImus2), vs OVX, n = 8 or 9
Source text: Ten-week-old female Sprague–Dawley rats were purchased from Charles River Laboratories Japan, Inc. (Kanagawa, Japan) and ovariectomized at 12 weeks old. Thirty-five days after surgery, rats received once daily subcutaneous injection of ABL, TPTD, or vehicle (saline containing 0.1% heat-inactivated rat serum) for 28 days. Day 0 indicates the day when administration was started. On day 26, rats were anesthetized with intraperitoneally administered pentobarbital sodium and the lumbar spine (L4 and L5) BMD was measured with a PIXImus2 (GE Healthcare, Chicago, IL). Blood (collected from the tail vein) and urine samples were obtained on day 28. Prior to collection, rats were fasted for 15–17 h. Rats were euthanized after the blood and urine collection, and the lumbar spine was removed for the measurement of bone strength. All experimental procedures were approved by the Animal Care and Use Committee of Teijin Institute for Bio-Medical Research.

[4] = system: human osteoblastic cell line SaOS-2; assay: cAMP accumulation assay in SaOS-2; assay type: cell-based; conditions: for cAMP accumulation, in words: SaOS-2, 10 min (Fig. 1a), n = 3 replicate wells; for EC50 / Emax, cAMP accumulation: SaOS-2, 10 min, 2 mmol/L 3-isobutyl-1-methylxanthine, mean ± s.e.m., three independent experiments, each triplicate; for EC50: cAMP-Screen System, P = 0.13 ABL vs TPTD; for Emax, cAMP accumulation: P = 0.96 ABL vs TPTD
Method: The human osteoblastic cell line SaOS-2 and the rat osteoblastic cell line UMR-106 were purchased from the European Collection of Cell Cultures (Wiltshire, UK). SaOS-2 and UMR-106 were maintained in growth medium (GM): McCoy’s 5A (for SaOS-2) or Dulbecco’s Modified Eagle’s Medium (for UMR-106) supplemented with 10% FBS and 1% penicillin/streptomycin at 37 °C with 5% CO2. To initiate cell differentiation, cells were grown in differentiation medium (DM): GM containing 50 µg/mL ascorbic acid, 10 mmol/L β-glycerophosphate, and 10 nmol/L dexamethasone. The culture medium was exchanged every 6 days or less.
Cells were cultured in 96-well plates at a density of 4 × 10^4 cells/well in GM overnight. The medium was replaced with serum-free GM (containing 0.1% BSA instead of 10% FBS) for culture under starvation conditions. Twenty-four hours after the start of starvation, ABL, TPTD, or vehicle (water containing 0.1% BSA) were added to the cells with 2 mmol/L of 3-isobutyl-1-methylxanthine for 10 min. Cells were lysed and accumulated cAMP was measured using the cAMP-Screen System (Applied Biosystems, Waltham, MA, USA) according to the manufacturer’s instructions.
All data are expressed as means ± s.e.m. For calculation of EC50 and Emax, 4-parameter logistic curve fitting was performed. Student’s t test was used for two-group comparisons. Dunnett’s or Tukey’s test was used for multiple comparisons. Significance was inferred from P values of < 0.05. All data were analyzed using GraphPad Prism version 6.03 (GraphPad Software, La Jolla, CA, USA).

[5] = system: patients with osteoporosis; conditions: cited from earlier work
[6] = subcutaneous injection, ref [14]

Substance | M-CSF protein secretion (SaOS-2 [1]) | M-CSF mRNA expression (SaOS-2 [2]; n = 3) | OPG mRNA expression (SaOS-2 [2]; n = 3) | RANKL mRNA expression (SaOS-2 [2]; n = 3) | RANKL/OPG mRNA expression (SaOS-2 [2]; n = 3) | expression of bone resorption-related factors such as RANKL/OPG and M-CSF (SaOS-2 [2]) | duration of cAMP production after wash-out of unbound ligand (PTH1R) | lumbar spine BMD (OVX rats) | cAMP accumulation, in words [4] | EC50 [4] [nM] | Emax, cAMP accumulation [4] [nmol/L] | further results
human PTH(1–34) [Teriparatide] | increased | similarly promoted | inhibited | similarly promoted | similarly promoted | increased | sustained after the unbound ligand is washed out | significantly increased | dose-dependently increased cAMP | 3.9 ± 0.5 | 22.0 ± 1.5 | half-life in humans ([3]; subcutaneous injection, ref [27], [28]): approximately an hour or less
[Glu^22,25, Leu^23,28,31, Aib^29, Lys^26,30] human PTHrP(1–34)–NH2 [Abaloparatide] | increased | similarly promoted | inhibited | similarly promoted | similarly promoted | increased | transient | significantly increased | dose-dependently increased cAMP | 5.1 ± 0.4 | 21.9 ± 1.4 | BMD at the hip and spine ([5]; daily subcutaneous, ref [14]): robust BMD increases; incidence of vertebral and non-vertebral fractures ([5]; daily subcutaneous, ref [14]): reduced incidence; calcemic effect vs TPTD ([5]; human, in vivo, sc): reduced as compared with TPTD; bone formation and resorption markers ([5]; ref [14]): increased both bone formation and resorption; bone formation and resorption markers vs TPTD ([5]; ref [14]): attenuated as compared with TPTD; bone formation marker [5, 6]: increased; bone resorption marker vs TPTD [5, 6]: less stimulation of the bone resorption marker than observed for TPTD; M-CSF protein secretion, ABL vs TPTD (SaOS-2 [1]; transient treatment (first 6 h) (Fig. 2e)): significantly less with ABL treatment than with TPTD; M-CSF expression, ABL vs TPTD (SaOS-2 [2]; transient 6-h treatment): less than TPTD; RANKL/OPG expression, ABL vs TPTD (SaOS-2 [2]; transient 6-h treatment): less than TPTD; bone resorption-related factors mRNA, ABL vs TPTD (SaOS-2 [2]; transient treatment (first 6 h, then washed out) (Fig. 2d), n = 3): significantly attenuated as compared with TPTD; half-life in humans ([3]; human, in vivo, sc): approximately an hour or less; EC50 and Emax of ABL compared with TPTD ([4]; SaOS-2, Table 1): no significant differences
